Test results from ChEMBL document CHEMBL1201862, “PubChem BioAssay data set” (2004).
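In this assay, cells in 96-well plates receive the compound at five concentrations for 48 hours. Endpoints are linearly interpolated between the surrounding concentrations. At the GI50, growth is halved.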 Active and inactive are the calls of the source. Rule as the data show it: active = GI50 up to about 1.1 µM and inactive = higher.

Experiments:
Assay in all cases: growth of human tumour cells (NCI), 48 h
SK-MEL-28 = system: SK-MEL-28
EKVX = system: EKVX
SF-268 = system: SF-268
A498 = system: A498
SF-539 = system: SF-539
MDA-MB-435 = system: MDA-MB-435
PC-3 = system: PC-3
UO-31 = system: UO-31
RXF 393 = system: RXF 393
CCRF-CEM = system: CCRF-CEM
TK-10 = system: TK-10
COLO 205 = system: COLO 205
NCI-H460 = system: NCI-H460
HCC 2998 = system: HCC 2998
SN12C = system: SN12C
NCI-H23 = system: NCI-H23
HT-29 = system: HT-29
Malme-3M = system: Malme-3M
MDA-N = system: MDA-N
OVCAR-8 = system: OVCAR-8

Row | SMILES | GI50 (SK-MEL-28) | GI50 (EKVX) | GI50 (SF-268) | GI50 (A498) | GI50 (SF-539) | GI50 (MDA-MB-435) | GI50 (PC-3) | GI50 (UO-31) | GI50 (RXF 393) | GI50 (CCRF-CEM) | GI50 (TK-10) | GI50 (COLO 205) | GI50 (NCI-H460) | GI50 (HCC 2998) | GI50 (SN12C) | GI50 (NCI-H23) | GI50 (HT-29) | GI50 (Malme-3M) | GI50 (MDA-N) | GI50 (OVCAR-8)
1 | COc1ccc(Nc2nc(N)c(C(=O)c3cccs3)s2)cc1 | 31 µM (inactive) | 16.9 µM (inactive) | 17 µM (inactive) | 6.68 µM (inactive) | 4.21 µM (inactive) | 1.24 µM (inactive) | 11.4 µM (inactive) | 6.1 µM (inactive) | 5.55 µM (inactive) | 3.38 µM (inactive) | 5.08 µM (inactive) | 3.98 µM (inactive) | 3.1 µM (inactive) | 0.931 µM (active) | 27.5 µM (inactive) | 12.8 µM (inactive) | 3.35 µM (inactive) | 30.1 µM (inactive) | 3.92 µM (inactive) | 19.2 µM (inactive)
2 | COCC1OC(OC2C3=C(C(C)C)CCC3(C)/C=C3\C(CCC3(O)COC)C(C)C2O)C(O)C2OC3OC12OC3(C)C1CO1 (stereo not given) | 31.6 µM (inactive) | 37.5 µM (inactive) | 16.9 µM (inactive) | 44 µM (inactive) | 24.8 µM (inactive) | 31 µM (inactive) | 35 µM (inactive) | 16.4 µM (inactive) | 21.2 µM (inactive) | 24.3 µM (inactive) | 29.9 µM (inactive) | 41.5 µM (inactive) | 32.7 µM (inactive) | 42.2 µM (inactive) | 50.9 µM (inactive) | 90.2 µM (inactive) | 34.8 µM (inactive) | 34.7 µM (inactive) | 54.1 µM (inactive) | 48 µM (inactive)
3 | O=S(=O)(Cc1nc2ccccc2s1)c1nc2ccccc2s1 | 15.6 µM (inactive) | 18.5 µM (inactive) | 15.6 µM (inactive) | 19.2 µM (inactive) | 21.2 µM (inactive) | 15.2 µM (inactive) | 17 µM (inactive) | 16.7 µM (inactive) | 22.5 µM (inactive) | 5.5 µM (inactive) | 20 µM (inactive) | 17.9 µM (inactive) | 38 µM (inactive) | 16.4 µM (inactive) | 16.8 µM (inactive) | 15.6 µM (inactive) | 18.2 µM (inactive) | 11.3 µM (inactive) | 15.5 µM (inactive) | 19.4 µM (inactive)
4 | COc1cc(/C=C(\C#N)c2nc3ccccc3o2)ccc1O | 17.7 µM (inactive) | 21.6 µM (inactive) | 19.9 µM (inactive) | 16.3 µM (inactive) | 12 µM (inactive) | 16.4 µM (inactive) | 21.2 µM (inactive) | 25.5 µM (inactive) | 39.5 µM (inactive) | 26.3 µM (inactive) | 24.4 µM (inactive) | 16.9 µM (inactive) | 15 µM (inactive) | 20.9 µM (inactive) | 34.7 µM (inactive) | 24.2 µM (inactive) | 22.3 µM (inactive) | 19.8 µM (inactive) | 23 µM (inactive) | 21.6 µM (inactive)
5 | C/C(=N\NC(=S)N(C)CCN(C)C(=S)N/N=C(\C)c1ccccn1)c1ccccn1 | 1.73 µM (inactive) | 1.73 µM (inactive) | 0.321 µM (active) | 0.565 µM (active) | 1.66 µM (inactive) | > 100 µM (inactive) | 0.553 µM (active) | 0.791 µM (active) | 0.0843 µM (active) | 0.428 µM (active) | 0.47 µM (active) | 0.247 µM (active) | 0.509 µM (active) | 10.4 µM (inactive) | 1.05 µM (active) | 4.38 µM (inactive) | 0.224 µM (active) | 0.826 µM (active) | 3.71 µM (inactive) | 0.345 µM (active)
6 | CC(=O)c1ccc(NCN2C(=O)c3ccccc3C2=O)cc1 | > 100 µM (inactive) | > 100 µM (inactive) | > 100 µM (inactive) | > 100 µM (inactive) | > 100 µM (inactive) | > 100 µM (inactive) | > 100 µM (inactive) | > 100 µM (inactive) | > 100 µM (inactive) | > 100 µM (inactive) | > 100 µM (inactive) | > 100 µM (inactive) | > 100 µM (inactive) | > 100 µM (inactive) | > 100 µM (inactive) | > 100 µM (inactive) | > 100 µM (inactive) | > 100 µM (inactive) | > 100 µM (inactive) | > 100 µM (inactive)
7 | O=C1OC[C@@H]2Cc3c([nH]c4ccccc34)[C@@H](c3cc(O)c(O)c(O)c3)N12 | 17.3 µM (inactive) | 44.5 µM (inactive) | 34.9 µM (inactive) | 12 µM (inactive) | 18.9 µM (inactive) | 2.69 µM (inactive) | 31.3 µM (inactive) | 27.3 µM (inactive) | 18.9 µM (inactive) | 12.6 µM (inactive) | 41.5 µM (inactive) | 23.4 µM (inactive) | 37.8 µM (inactive) | 48.1 µM (inactive) | 26.9 µM (inactive) | 29.4 µM (inactive) | 31 µM (inactive) | 4.37 µM (inactive) | 5.97 µM (inactive) | 16.4 µM (inactive)
8 | C=C1C(=O)O[C@@]23C1CC[C@@H](C)C2CC[C@@]1(C)OC31 (stereo not given in full) | 6.35 µM (inactive) | 12.5 µM (inactive) | 13.7 µM (inactive) | 18.2 µM (inactive) | 3.24 µM (inactive) | 4.25 µM (inactive) | 5.05 µM (inactive) | 5.69 µM (inactive) | 16.7 µM (inactive) | 3.42 µM (inactive) | 4.12 µM (inactive) | 1.86 µM (inactive) | 16.4 µM (inactive) | 4.9 µM (inactive) | 7.24 µM (inactive) | 7.18 µM (inactive) | 5.86 µM (inactive) | 2.08 µM (inactive) | 5.09 µM (inactive) | 16.9 µM (inactive)
9 | Cc1nc2[nH]ncn2c(=O)c1CCCl | > 10 µM (inactive) | > 10 µM (inactive) | > 10 µM (inactive) | > 10 µM (inactive) | > 10 µM (inactive) | > 10 µM (inactive) | > 10 µM (inactive) | > 10 µM (inactive) | > 10 µM (inactive) | > 10 µM (inactive) | > 10 µM (inactive) | > 10 µM (inactive) | > 10 µM (inactive) | > 10 µM (inactive) | > 10 µM (inactive) | > 10 µM (inactive) | > 10 µM (inactive) | > 10 µM (inactive) | > 10 µM (inactive) | > 10 µM (inactive)
10 | NC12Oc3cc(O)cc(O)c3C1(c1ccc(Cl)cc1)c1c(O)cc(O)cc1O2 (stereo not given) | 61.2 µM (inactive) | 71.8 µM (inactive) | 69 µM (inactive) | > 100 µM (inactive) | 42.8 µM (inactive) | 46.8 µM (inactive) | 43 µM (inactive) | 92.5 µM (inactive) | 32.3 µM (inactive) | 37.7 µM (inactive) | 66.8 µM (inactive) | 97.5 µM (inactive) | 34.6 µM (inactive) | > 100 µM (inactive) | 21.4 µM (inactive) | 46.9 µM (inactive) | 35.4 µM (inactive) | 40.6 µM (inactive) | 39.9 µM (inactive) | > 100 µM (inactive)
11 | CC(=O)/C=C/C1=C(C)CCCC1(C)CC(C)C (stereo not given) | 40.8 µM (inactive) | 39.7 µM (inactive) | 39.7 µM (inactive) | 24.2 µM (inactive) | 31.9 µM (inactive) | 32.5 µM (inactive) | 35 µM (inactive) | 36.9 µM (inactive) | 14.8 µM (inactive) | 14.9 µM (inactive) | > 100 µM (inactive) | 30.3 µM (inactive) | 29.1 µM (inactive) | 17.6 µM (inactive) | 18.8 µM (inactive) | 24.8 µM (inactive) | 28 µM (inactive) | 30.6 µM (inactive) | 28.9 µM (inactive) | 31.3 µM (inactive)
12 | CC(=O)OCC1OC(n2cc(F)c(=O)[nH]c2=O)C(OC(C)=O)C1OC(C)=O (stereo not given) | 25.2 µM (inactive) | > 75.2 µM (inactive) | 12.5 µM (inactive) | 61.2 µM (inactive) | 7.55 µM (inactive) | 17 µM (inactive) | 73.8 µM (inactive) | 11.8 µM (inactive) | 45.9 µM (inactive) | 6 µM (inactive) | > 100 µM (inactive) | 12.2 µM (inactive) | 5.37 µM (inactive) | 7.1 µM (inactive) | 32.5 µM (inactive) | 75.2 µM (inactive) | 27.9 µM (inactive) | 5.05 µM (inactive) | 11.5 µM (inactive) | 26 µM (inactive)
13 | O=c1[nH]c(=S)[nH]n1C(=S)n1[nH]c(=S)[nH]c1=O | > 100 µM (inactive) | > 100 µM (inactive) | > 100 µM (inactive) | > 100 µM (inactive) | > 100 µM (inactive) | > 100 µM (inactive) | > 100 µM (inactive) | > 100 µM (inactive) | > 100 µM (inactive) | 71.8 µM (inactive) | > 100 µM (inactive) | > 100 µM (inactive) | > 100 µM (inactive) | > 100 µM (inactive) | > 100 µM (inactive) | > 100 µM (inactive) | > 100 µM (inactive) | 36.7 µM (inactive) | > 100 µM (inactive) | > 100 µM (inactive)
14 | CC(=O)OC(C)(C)CCC(=O)[C@](C)(O)[C@H]1[C@H](O)C[C@@]2(C)[C@@H]3CC=C4C(C)=C(OC5OC(CO)C(O)C(O)C5O)C(=O)C[C@@H]4[C@]3(C)C(=O)C[C@]12C (stereo not given in full) | > 100 µM (inactive) | > 100 µM (inactive) | > 100 µM (inactive) | > 100 µM (inactive) | > 100 µM (inactive) | > 100 µM (inactive) | > 100 µM (inactive) | > 100 µM (inactive) | > 100 µM (inactive) | > 100 µM (inactive) | > 100 µM (inactive) | > 100 µM (inactive) | > 100 µM (inactive) | > 100 µM (inactive) | > 100 µM (inactive) | > 100 µM (inactive) | > 100 µM (inactive) | > 100 µM (inactive) | > 100 µM (inactive) | > 100 µM (inactive)
